Experimental data taken from paper PMC9525273 (Nature Communications, 2022).
Values joined by “and” are separate entries in the source; they are usually repeats but may differ in a detail not shown here. Equal values may be shown once. Read-outs that look alike come from different tables or passages of the source.

How the values were obtained:
[1] = system: MMV665949-selected Culture 1 (from Dd2-Polδ; not cloned); assay: P. falciparum proliferation assay (72 h, fluorescent DNA-intercalating dye); assay type: cell-based, Plasmodium falciparum; conditions: Plasmodium falciparum, DD2; MMV665949-selected Culture 1; mean ± SEM, n = 3; read-out: IC50 value
Method: For experiments with all other parasites, the effects of compounds of interest on parasite proliferation was measured in 96-well plates containing serial dilutions of the compounds in culture medium, with a fluorescent DNA-intercalating dye used to detect surviving parasites. The assays were initiated with erythrocytes infected with predominantly ring-stage parasites, and the starting parasitaemia and haematocrit were both 1%. […] Fluorescence was measured using a FLUOstar OPTIMA plate reader (BMG LABTECH), with OPTIMA version 2.20R2 and MARS Data Analysis Software version 3.01 R2 (BMG LABTECH).

[2] = target: T1, TgATP4^G419S-HA (membranes from T. gondii tachyzoites) (Toxoplasma gondii, UniProt B9QMJ0, G419S); assay: Membrane ATPase assay, ATP4-associated (Na+-dependent) ATPase activity; assay type: biochemical
T1 sequence (B9QMJ0 1-1338 G419S): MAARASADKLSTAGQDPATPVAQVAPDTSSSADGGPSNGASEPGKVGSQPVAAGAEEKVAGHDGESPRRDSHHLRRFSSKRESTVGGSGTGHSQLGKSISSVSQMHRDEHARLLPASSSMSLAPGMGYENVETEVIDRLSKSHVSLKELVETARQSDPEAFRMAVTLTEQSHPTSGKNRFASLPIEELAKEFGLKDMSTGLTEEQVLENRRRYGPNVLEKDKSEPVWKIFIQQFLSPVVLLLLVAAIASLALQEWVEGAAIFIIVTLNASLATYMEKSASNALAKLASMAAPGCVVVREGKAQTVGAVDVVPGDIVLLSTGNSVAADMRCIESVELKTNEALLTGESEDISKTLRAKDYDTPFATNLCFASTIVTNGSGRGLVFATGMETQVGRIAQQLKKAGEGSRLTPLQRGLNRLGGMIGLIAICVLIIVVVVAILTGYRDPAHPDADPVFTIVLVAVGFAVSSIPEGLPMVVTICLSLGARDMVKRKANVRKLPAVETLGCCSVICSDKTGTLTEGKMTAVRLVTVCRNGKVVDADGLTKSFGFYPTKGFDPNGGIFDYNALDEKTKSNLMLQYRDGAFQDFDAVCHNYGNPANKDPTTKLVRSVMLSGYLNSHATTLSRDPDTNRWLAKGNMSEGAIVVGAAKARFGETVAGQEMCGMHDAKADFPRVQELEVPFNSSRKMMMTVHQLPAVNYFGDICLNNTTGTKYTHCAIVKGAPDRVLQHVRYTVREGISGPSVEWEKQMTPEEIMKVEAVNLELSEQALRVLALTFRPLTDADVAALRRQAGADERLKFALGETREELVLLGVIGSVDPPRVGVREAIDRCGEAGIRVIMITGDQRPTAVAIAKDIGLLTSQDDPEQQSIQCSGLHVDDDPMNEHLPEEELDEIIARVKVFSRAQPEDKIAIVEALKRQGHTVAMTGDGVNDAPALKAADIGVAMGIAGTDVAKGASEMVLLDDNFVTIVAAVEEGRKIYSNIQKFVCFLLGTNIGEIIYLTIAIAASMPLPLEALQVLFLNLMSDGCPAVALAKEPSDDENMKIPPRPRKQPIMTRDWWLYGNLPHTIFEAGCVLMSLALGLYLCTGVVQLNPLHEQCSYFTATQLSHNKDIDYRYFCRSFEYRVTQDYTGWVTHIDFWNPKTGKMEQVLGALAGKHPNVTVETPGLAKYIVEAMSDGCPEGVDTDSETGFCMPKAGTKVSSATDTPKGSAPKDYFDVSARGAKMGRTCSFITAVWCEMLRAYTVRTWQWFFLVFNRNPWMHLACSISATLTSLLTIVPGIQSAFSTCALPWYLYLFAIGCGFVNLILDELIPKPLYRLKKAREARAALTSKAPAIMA
Method: (§1) Membranes from isolated P. falciparum or extracellular T. gondii parasites were prepared by lysing parasites in ice-cold deionized water containing a 1:500 dilution of Protease Inhibitor Cocktail Set III (Merck Millipore), then washing the membrane preparation three times in ice-cold deionized water (with protease inhibitors present for the first two washes)[15]. Protein concentrations in the membrane preparations were measured using a Bradford assay. The PiColorLock Gold Phosphate Detection System (Innova Biosciences) was used to measure the production of Pi from hydrolysis of ATP[15]. Membrane preparations were diluted in either a high Na^+ solution (yielding final conditions in the reactions of 150 mM NaCl, 20 mM KCl, 2 mM MgCl2, 50 mM Tris, pH 7.2) or a Na^+-free solution (yielding final conditions of 150 mM choline chloride, 20 mM KCl, 2 mM MgCl2, 50 mM Tris, pH 7.2) to achieve a total protein concentration of 50 μg/mL. […] The reactions were performed at 37 °C, and were initiated by the addition of 1 mM ATP (Na2ATP۰3H2O; MP Biomedicals) and terminated 10 min later by adding 100 μL of reaction mixture (in duplicate) to 25 μL “Gold mix” in a 96-well plate. “Stabiliser” was added 3 min later, and the plates incubated at room temperature in the dark for 60 min before measuring absorbance at 635 nm. Background values (averaged from wells containing all components, but to which ATP was not added until after the membrane was exposed to Gold mix) were subtracted from the data. For each treatment, the ATPase activity associated with the (Na^+-dependent) PfATP4 and TgATP4 proteins was calculated by subtracting data obtained in the low Na^+ condition (containing only the 2 mM Na^+ introduced on addition of 1 mM Na2ATP) from that obtained in the high Na^+ condition.

[3] = target: T2, TgATP4^WT (membranes from T. gondii tachyzoites) (Toxoplasma gondii, UniProt B9QMJ0); assay: as above; assay type: biochemical; design: IC50 for inhibition of ATP4-associated ATPase activity, MEAN: unit: nM
T2 sequence (B9QMJ0 1-1338): T1 sequence (B9QMJ0 1-1338 G419S)
Method: as §1

Compound: C[C@H]1Cc2c([nH]c3cc(Cl)c(F)cc23)[C@@]2(N1)C(=O)Nc1ccc(Cl)cc12 [Cipargamin]
- IC50 [1]: 1.42 ± 0.3 nM
- IC50 for inhibition of ATP4-associated ATPase activity, MEAN ([2]; TgATP4G419S-HA membranes, MEAN, source data of Table 1 (nM there)): 287.6
- IC50 for ATP4-associated ATPase activity ([2]; membranes from TgATP4G419S-HA, mean ± SEM): 288 ± 111 (4) (P = 0.05) nM
- IC50 for inhibition of ATP4-associated ATPase activity, MEAN ([3]; WT T. gondii membranes, MEAN, source data of Table 1 (nM there)): 8.39
- remaining activity at 60 pM ([3]; WT T. gondii, Cipargamin 0.06 nM, MEAN, read-out: TgATP4-associated ATPase activity (% of control)): 98.4%
- TgATP4-associated ATPase activity (% of control) ([3]; WT T. gondii, Cipargamin 0.06 nM, single experiments): 98.0 % of control
- remaining activity at 60 pM ([3]; WT T. gondii, Cipargamin 0.06 nM, single experiments, read-out: TgATP4-associated ATPase activity (% of control)): 98.9%
- remaining activity at 0.00012 µM ([3]; WT T. gondii, Cipargamin 0.12 nM, MEAN, read-out: TgATP4-associated ATPase activity (% of control)): 101%
- TgATP4-associated ATPase activity (% of control) ([3]; WT T. gondii, Cipargamin 0.12 nM, single experiments): 100.0 % of control and 99.7 % of control and 103.4 % of control
- remaining activity at 0.00012 µM ([3]; WT T. gondii, Cipargamin 0.12 nM, single experiments, read-out: TgATP4-associated ATPase activity (% of control)): 100%
- remaining activity at 0.00024 µM ([3]; WT T. gondii, Cipargamin 0.24 nM, MEAN, read-out: TgATP4-associated ATPase activity (% of control)): 91.8%
- TgATP4-associated ATPase activity (% of control) ([3]; WT T. gondii, Cipargamin 0.24 nM, single experiments): 81.4 % of control and 81.6 % of control and 107.2 % of control and 96.9 % of control
- remaining activity at 0.00049 µM ([3]; WT T. gondii, Cipargamin 0.49 nM, MEAN, read-out: TgATP4-associated ATPase activity (% of control)): 76.3%
- remaining activity at 0.00098 µM ([3]; WT T. gondii, Cipargamin 0.98 nM, MEAN, read-out: TgATP4-associated ATPase activity (% of control)): 66.1%
- remaining activity at 0.00195 µM ([3]; WT T. gondii, Cipargamin 1.95 nM, MEAN, read-out: TgATP4-associated ATPase activity (% of control)): 47.3%
- remaining activity at 0.0039 µM ([3]; WT T. gondii, [cipargamin] 3.9 nM, MEAN, read-out: TgATP4-associated ATPase activity (% of control)): 34.5%
- remaining activity at 0.0078 µM ([3]; WT T. gondii, [cipargamin] 7.8 nM, MEAN, read-out: TgATP4-associated ATPase activity (% of control)): 38.1%
- remaining activity at 0.0156 µM ([3]; WT T. gondii, [cipargamin] 15.6 nM, MEAN, read-out: TgATP4-associated ATPase activity (% of control)): 21.9%
- remaining activity at 0.0313 µM ([3]; WT T. gondii, [cipargamin] 31.3 nM, MEAN, read-out: TgATP4-associated ATPase activity (% of control)): 13.1%
- remaining activity at 0.0625 µM ([3]; WT T. gondii, [cipargamin] 62.5 nM, MEAN, read-out: TgATP4-associated ATPase activity (% of control)): 6.8%
- IC50 for ATP4-associated ATPase activity ([3]; membranes from WT T. gondii (TgATP4WT), mean ± SEM): 8.4 ± 5.8 (4) nM
